# “Also recorded” adds a separate entry of the source.
# Key:
# [1] = tested on: secretion of apoE by THP-1 cells; assay: Secretion of apoE by THP-1 cells, apoE determined by ELISA; type: cell-based, human; conditions: reference compound for assay validation
# Protocol: The THP-1 cell line was derived from the peripheral blood of a child with acute monocytic leukaemia and were obtained from the European Collection of Animal Cell Cultures (ECACC, #88081201). […] The cells were grown as non-adherent cells in RPMI 1640 culture medium, 2 mM glutamine, 20 μM 2-mercaptoethanol. Fresh medium was added to maintain cell density between 2 and 9×10^5 cells/ml. Once a week, new cultures were initiated by inoculating 10 ml of medium with 2×10^6 cells in a 75 cm^2 plate. The plates were kept at 37° C. in a 5% CO2 atmosphere. For screening, cells were seeded in 24-well plates at the density of 2×10^5 cells per well. Phorbol-12-myristat-13-acetate (PMA) was added at 0 and 5 nM to initiate TBP-1 differentiation into adherent macrophage-like cells. Vehicles, reference compounds and test compounds were added simultaneously at concentrations varying from 50 μM and incubated for 72 hours. […]
# Ninety-six well-microtiter plates were coated by incubating with a 5% gelatin solution from porcine skin, bloom 60 in 50 mM carbonate-bicarbonate buffer, pH9.6 at the concentration of 200 μl/well, for 2 hours at 37° C. The coating solution was carefully removed and the sample to be analyzed was added (100 μl/well) at the appropriate dilution. […] The absorbance at 492 nm versus 620 nm was read on a microplate photometer and the results were then converted in human apoE ng equivalent. […]
# rat plasma HDLc = assay: In vivo rat model: plasma HDL cholesterol after 5 days of oral treatment; conditions: for Rat Plasma HDLc (% change): dose-response experiment, OFA rats, Day 5
# Protocol: (§1) This model was validated by testing the hypocholesterolemic drug gemfibrozil (200 mg/kg) as reference compound.
# (§2) […] Test compounds were given as a suspension in 20% Tween-80 supplemented with 0.5% carboxymethylcellulose. The control group received 1 ml vehicle alone. After a treatment period of 5 days, rats were weighed, sacrificed by decapitation under pentobarbital anesthesia after an overnight fast. Blood was collected on EDTA and plasma was used for analysis.
# (§3) ApoE was quantified by an ELISA method using a goat anti-apolipoprotein E antibody. Briefly, a dilution to 1/200 of rat plasma was coated on microtiter plates. ApoE was recognized by the polyclonal antibody; the conjugate antibody (anti-goat IgG peroxidase) was then added for substrate biochemical recognition. Apolipoprotein E was expressed as % change from mean control value. Cholesterol was measured with a commercially available enzymatic kit. Results were expressed as % change from control group.
# rat plasma apoE = assay: In vivo rat model: plasma apoE by ELISA after 5 days of oral treatment
# Protocol: Rats fed a normal diet are a convenient model recently proposed for the screening of apoE modulating compounds (Leininger-Muller & Siest, 1996, herein incorporated by reference).
# as §1, §2, §3
# [2] = OFA rats, 200 mg/kg/day p.o. for 5 days, change from mean control value
# [3] = OFA rats, 50, 100, 200 mg/kg p.o. for 5 days
# [4] = rats fed a normal diet, 200 mg/kg/day for 5 days
compound,measurement,setting,value
"CC1=C(/C=C/C(C)=C/C=C/C(C)=C/C(=O)O)C(C)(C)CCC1 [ATRA, all-trans retinoic acid, reference compound]",production of apoE by THP-1 cells (effect in words),[1],decreased; also recorded: potent inhibitor
same,HDL cholesterol level in rats (effect in words),"rat plasma HDLc; rats, dose not given",decrease
same,plasma level of apoE in rats (effect in words),"rat plasma apoE; rats, dose not given",decrease
"COP(=O)(OC)C(Nc1ccccn1)P(=O)(OC)OC [Compound 1, Tetramethyl N-(2-pyridyl)aminomethylenediphosphonate]",melting point,,162 to 164 °C
same,Rat Plasma apoE (% change),rat plasma apoE; [2],+69 % change
"CCOP(=O)(OCC)C(Nc1ccccn1)P(=O)(OCC)OCC [Compound 2, Tetraethyl N-(2-pyridyl)aminomethylenediphosphonate]","plasma HDL cholesterol (HDLc) level, dose dependence (in words)",rat plasma HDLc; [3],increased in a dose-response way
same,Rat Plasma HDLc (% change),rat plasma HDLc; 50 mg/kg/day p.o. for 5 days,+27 % change
same,Rat Plasma HDLc (% change),rat plasma HDLc; 100 mg/kg/day p.o. for 5 days,+34 % change
same,Rat Plasma HDLc (% change),rat plasma HDLc; 200 mg/kg/day p.o. for 5 days,+68 % change
same,Rat Plasma apoE (% change),rat plasma apoE; [2],+44 % change
same,"plasma apoE level, dose dependence (in words)",rat plasma apoE; [3],increased in a dose-response way
same,Rat Plasma apoE (% change),"rat plasma apoE; dose-response experiment, OFA rats, 50 mg/kg/day p.o. for 5 days, Day 5",+38 % change
same,Rat Plasma apoE (% change),"rat plasma apoE; dose-response experiment, OFA rats, 100 mg/kg/day p.o. for 5 days, Day 5",+37 % change
same,Rat Plasma apoE (% change),"rat plasma apoE; dose-response experiment, OFA rats, 200 mg/kg/day p.o. for 5 days, Day 5",+62 % change
"CC(C)OP(=O)(OC(C)C)C(Nc1ccccn1)P(=O)(OC(C)C)OC(C)C [Compound 3, Tetraisopropyl N-(2-pyridyl)aminomethylenediphosphonate]",melting point,,98 to 100 °C
same,Rat Plasma apoE (% change),"rat plasma apoE; po, 200 mg/kg/day, 120 h",+16 % change
"CCOP(=O)(OCC)C(Nc1cnc2ccccc2c1)P(=O)(OCC)OCC [Compound 9, Tetraethyl N-(3-quinolinyl)aminomethylenediphosphonate]",melting point,,156 to 158 °C
"Cc1ccc(C)c(OCCCC(C)(C)C(=O)O)c1 [gemfibrozil, reference compound]",HDL cholesterol increase in rats (model validation),rat plasma HDLc; [4],+42%
same,apoE increase in rats (model validation),rat plasma apoE; [4],+75%

# Reference: US7208481B2, “Aminodiphosphonate apolipoprotein E modulators” (ILEX Products, Inc., priority 2002, dated 2007)
